Values of other authors as cited in US20090202995A1, “MOLECULAR CARDIOTOXICOLOGY MODELING” (priority 2005, published 2009).
Read-outs that look alike come from different tables or passages of the source.

Key:
heart tissue [1] = tested on: heart tissue
heart tissue [2] = settings: known designation used to train the model, at the dose, time and route of Table 3
heart tissue [3] = tested on: heart tissue; remark: listed apart in the source
heart tissue [4] = tested on: heart tissue; remark: listed apart in the source
heart tissue [5] = settings: known designation used to train the model, at the dose, time and route of Table 3; remark: listed apart in the source
heart tissue [6] = settings: known designation used to train the model, at the dose, time and route of Table 3; remark: listed apart in the source
[7] = known tox (1) / non-tox (−1) designation used to train the model, at the dose, time and route of Table 3
[8] = known designation used to train the model, at the dose, time and route of Table 3

N.N.[Cl][Pt][Cl] [Cisplatin]
General (heart tissue [1]; [7]): 1 | Andrenergic Agonist (heart tissue [2]): −1 | Arrhythmia (heart tissue [3]; [8]): 1 | Myocardial Necrosis (heart tissue [4]; [8]): 1 | Vasculature Agent (heart tissue [5]): −1 | Heart Failure (heart tissue [6]): −1

N=C(N)c1ccc(OCCCCCOc2ccc(C(=N)N)cc2)cc1 [Pentamidine]
General (heart tissue [1]; [7]): 1 | Arrhythmia (heart tissue [3]; [8]): 1 | Myocardial Necrosis (heart tissue [4]; [8]): −1 | Heart Failure (heart tissue [6]): −1

N.N.O=C([O-])C1(C(=O)[O-])CCC1.[Pt+2] [Carboplatin]
General (heart tissue [1]; [7]): −1 | Andrenergic Agonist (heart tissue [2]): −1 | Arrhythmia (heart tissue [3]; [8]): −1 | Myocardial Necrosis (heart tissue [4]; [8]): −1 | Vasculature Agent (heart tissue [5]): −1 | Heart Failure (heart tissue [6]): −1

CC(C)NCC(O)c1ccc(O)c(O)c1 (stereo not shown) [Isoproterenol]
General (heart tissue [1]; [7]): 1 | Andrenergic Agonist (heart tissue [2]): 1 | Arrhythmia (heart tissue [3]; [8]): 1 | Myocardial Necrosis (heart tissue [4]; [8]): 1

CC(C)(C)NCC(O)c1cc(Cl)c(N)c(Cl)c1 (stereo not shown) [Clenbuterol]
General (heart tissue [1]; [7]): 1 | Andrenergic Agonist (heart tissue [2]): 1 | Arrhythmia (heart tissue [3]; [8]): 1 | Myocardial Necrosis (heart tissue [4]; [8]): 1 | Vasculature Agent (heart tissue [5]): 1

CC(N)C(O)c1ccccc1 (stereo not shown) [Phenylpropanolamine]
General (heart tissue [1]; [7]): 1 | Arrhythmia (heart tissue [3]; [8]): 1 | Heart Failure (heart tissue [6]): −1

Fc1ccc([C@@H]2CCNC[C@H]2COc2ccc3c(c2)OCO3)cc1 [Paroxetine]
General (heart tissue [1]; [7]): 1 | Arrhythmia (heart tissue [3]; [8]): 1 | Myocardial Necrosis (heart tissue [4]; [8]): −1

CNC[C@H](O)c1ccc(O)c(O)c1 [Epinephrine]
General (heart tissue [1]; [7]): 1 | Andrenergic Agonist (heart tissue [2]): 1 | Arrhythmia (heart tissue [3]; [8]): 1 | Myocardial Necrosis (heart tissue [4]; [8]): 1 | Vasculature Agent (heart tissue [5]): −1 | Heart Failure (heart tissue [6]): −1

O=C1CN(/N=C/c2ccc(-c3ccc([N+](=O)[O-])cc3)o2)C(O)=N1 [Dantrolene]
General (heart tissue [1]; [7]): 1 | Andrenergic Agonist (heart tissue [2]): −1 | Arrhythmia (heart tissue [3]; [8]): 1 | Myocardial Necrosis (heart tissue [4]; [8]): −1 | Heart Failure (heart tissue [6]): 1

CN(CCOc1ccc(CC2SC(=O)NC2=O)cc1)c1ccccn1 (stereo not shown) [Rosiglitazone]
General (heart tissue [1]; [7]): 1 | Heart Failure (heart tissue [6]): 1

NCCc1ccc(O)c(O)c1 [Dopamine]
General (heart tissue [1]; [7]): 1 | Andrenergic Agonist (heart tissue [2]): 1 | Arrhythmia (heart tissue [3]; [8]): 1 | Myocardial Necrosis (heart tissue [4]; [8]): −1 | Vasculature Agent (heart tissue [5]): −1

NNc1nncc2ccccc12 [Hydralazine]
General (heart tissue [1]; [7]): 1 | Andrenergic Agonist (heart tissue [2]): −1 | Arrhythmia (heart tissue [3]; [8]): 1 | Myocardial Necrosis (heart tissue [4]; [8]): 1 | Vasculature Agent (heart tissue [5]): 1 | Heart Failure (heart tissue [6]): −1

Nc1nc2c(ncn2COCCO)c(=O)[nH]1 [Acyclovir]
General (heart tissue [1]; [7]): −1 | Andrenergic Agonist (heart tissue [2]): −1 | Arrhythmia (heart tissue [3]; [8]): −1 | Myocardial Necrosis (heart tissue [4]; [8]): −1 | Vasculature Agent (heart tissue [5]): −1 | Heart Failure (heart tissue [6]): −1

COc1cccc2c1C(=O)c1c(O)c3c(c(O)c1C2=O)C[C@@](O)(C(=O)CO)C[C@@H]3O[C@H]1C[C@H](N)[C@H](O)[C@H](C)O1 [Adriamycin]
General (heart tissue [1]; [7]): 1 | Andrenergic Agonist (heart tissue [2]): −1 | Arrhythmia (heart tissue [3]; [8]): −1 | Myocardial Necrosis (heart tissue [4]; [8]): 1 | Vasculature Agent (heart tissue [5]): −1 | Heart Failure (heart tissue [6]): 1

COc1cccc2c1C(=O)c1c(O)c3c(c(O)c1C2=O)C[C@@](O)(C(=O)CO)C[C@@H]3O[C@H]1C[C@H](N)[C@@H](O)[C@H](C)O1 [Epirubicin]
General (heart tissue [1]; [7]): 1 | Andrenergic Agonist (heart tissue [2]): −1 | Arrhythmia (heart tissue [3]; [8]): 1 | Myocardial Necrosis (heart tissue [4]; [8]): −1 | Vasculature Agent (heart tissue [5]): −1 | Heart Failure (heart tissue [6]): 1

C[C@H]1C(=O)O[C@@H]2CCN3CC=C(COC(=O)[C@](C)(O)[C@]1(C)O)[C@H]23 [Monocrotaline]
General (heart tissue [1]; rat, in vivo): 1 | Arrhythmia (heart tissue [3]; rat, in vivo): −1 | Myocardial Necrosis (heart tissue [4]; rat, in vivo): −1

ClC(Cl)(Cl)Cl [CCl4]
General (heart tissue [1]; [7]): −1 | Andrenergic Agonist (heart tissue [2]): −1 | Arrhythmia (heart tissue [3]; [8]): −1 | Myocardial Necrosis (heart tissue [4]; [8]): −1 | Vasculature Agent (heart tissue [5]): −1 | Heart Failure (heart tissue [6]): −1

O=P1(N(CCCl)CCCl)NCCCO1 (stereo not shown) [Cyclophosphamide]
General (heart tissue [1]; [7]): 1 | Andrenergic Agonist (heart tissue [2]): −1 | Arrhythmia (heart tissue [3]; [8]): −1 | Myocardial Necrosis (heart tissue [4]; [8]): −1 | Vasculature Agent (heart tissue [5]): −1 | Heart Failure (heart tissue [6]): 1

Nc1cc(N2CCCCC2)nc(N)[n+]1[O-] [Minoxidil]
General (heart tissue [1]; [7]): 1 | Andrenergic Agonist (heart tissue [2]): −1 | Arrhythmia (heart tissue [3]; [8]): 1 | Myocardial Necrosis (heart tissue [4]; [8]): 1 | Vasculature Agent (heart tissue [5]): 1 | Heart Failure (heart tissue [6]): 1

NC[C@H](O)c1ccc(O)c(O)c1 [Norephinephrine]
General (heart tissue [1]; [7]): 1 | Andrenergic Agonist (heart tissue [2]): 1 | Arrhythmia (heart tissue [3]; [8]): 1 | Myocardial Necrosis (heart tissue [4]; [8]): 1 | Heart Failure (heart tissue [6]): −1

Cn1nnc2c(C(N)=O)ncn2c1=O [Temozolomide]
General (heart tissue [1]; [7]): −1 | Arrhythmia (heart tissue [3]; [8]): −1 | Myocardial Necrosis (heart tissue [4]; [8]): −1 | Heart Failure (heart tissue [6]): −1

NC(N)=Nc1nc(CSCCC(N)=NS(N)(=O)=O)cs1 [Famotidine]
General (heart tissue [1]; [7]): 1 | Andrenergic Agonist (heart tissue [2]): −1 | Arrhythmia (heart tissue [3]; [8]): 1 | Myocardial Necrosis (heart tissue [4]; [8]): −1 | Vasculature Agent (heart tissue [5]): −1 | Heart Failure (heart tissue [6]): −1
